The target of test [1] is T1, Orexin receptor type 2 (Homo sapiens, UniProt O43614).
T1 sequence (O43614 whole entry): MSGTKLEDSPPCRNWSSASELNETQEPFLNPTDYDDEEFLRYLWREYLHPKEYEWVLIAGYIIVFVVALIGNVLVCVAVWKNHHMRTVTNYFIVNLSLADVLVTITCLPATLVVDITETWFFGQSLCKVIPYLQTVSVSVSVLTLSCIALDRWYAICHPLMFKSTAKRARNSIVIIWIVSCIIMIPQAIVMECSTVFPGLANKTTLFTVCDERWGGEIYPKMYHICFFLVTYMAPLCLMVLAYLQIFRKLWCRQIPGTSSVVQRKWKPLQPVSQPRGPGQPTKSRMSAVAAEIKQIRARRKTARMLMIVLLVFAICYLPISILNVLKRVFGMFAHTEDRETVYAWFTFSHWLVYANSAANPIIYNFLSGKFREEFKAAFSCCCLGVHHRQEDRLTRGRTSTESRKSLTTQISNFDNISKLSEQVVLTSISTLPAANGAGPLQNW
Nature of the test: (§1) Fluorescent Imaging Plate Reader (FLIPR) Assay: Orexin antagonist activity was determined by measuring changes in intracellular calcium levels using a Ca2+ sensitive fluorescent dye. The changes in fluorescent signal were monitored by Fluorescent Imaging Plate Reader (FLIPR) technology available from Molecular Devices, LLC, U.S.A. Orexin mediated increases in intracellular Ca2+ concentration were readily detected upon activation with orexin-A. Twenty-four hours prior to the assay, RBL-2H3 cells stably expressing either human orexin receptor 1 or human orexin receptor 2 were seeded in cell culture medium in black, clear-bottom 384-well plates (commercially available from Corning Inc., U.S.A.) and grown overnight at 37° C., 5% CO2. On the day of the assay, cell culture media was removed and cells were loaded with Calcium 5 Dye (commercially sold by Molecular Devices, LLC, U.S.A.) for 1 hour at 37° C., 5% CO2. Test compounds (at 10 point half log concentration response curves from 10 uM) were added to cells for 15 minutes prior to the addition of orexin-A to all wells, to achieve a final concentration that produces approximately an 80% maximal response. The IC50 values were determined from ten point concentration response curves. Curves were generated using the average of two wells for each data point. It counts as cell-based. For orientation: Calcium assays in cells follow changes in intracellular calcium, usually with a dye or a luminescent sensor.

The target of test [2] is T2, Orexin/Hypocretin receptor type 1 (Homo sapiens, UniProt O43613).
T2 sequence (O43613 whole entry): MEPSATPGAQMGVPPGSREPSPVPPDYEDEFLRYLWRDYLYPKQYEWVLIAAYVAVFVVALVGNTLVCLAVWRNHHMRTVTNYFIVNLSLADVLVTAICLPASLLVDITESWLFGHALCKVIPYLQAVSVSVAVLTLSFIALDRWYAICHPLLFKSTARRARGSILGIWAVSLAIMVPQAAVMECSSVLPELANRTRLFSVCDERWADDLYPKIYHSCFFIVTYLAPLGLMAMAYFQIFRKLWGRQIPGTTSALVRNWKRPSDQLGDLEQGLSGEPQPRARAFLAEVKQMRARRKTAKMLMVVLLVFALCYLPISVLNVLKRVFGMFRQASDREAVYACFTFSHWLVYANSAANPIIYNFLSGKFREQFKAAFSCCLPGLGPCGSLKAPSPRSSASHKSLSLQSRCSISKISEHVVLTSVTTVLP
The test is described as §1. It counts as cell-based.

The text below walks through data of ChEMBL document CHEMBL5725243, “Cyclopentylbenzamide derivatives and their use for the treatment of psychotic and cognitive disorders” (2016).

pIC50: −log10 of the molar value.

For `Cc1ccc(-n2nccn2)c(C(=O)N[C@H]2CCC[C@@H]2Nc2ncc3ccccc3n2)c1`, the pIC50 (in general, the negative decadic logarithm of the IC50, by convention in mol/L) in test [1] is less than 5.00; in test [2] it was 7.62.

For the compound `CCOc1cccc(OCC)c1C(=O)N[C@@H]1CCC[C@@H]1Nc1nc2ccccc2o1`, the figures for the pIC50 in test [1] and in test [2] were 5.92 and 6.89, respectively.

Regarding `COc1cccc(OC)c1C(=O)N[C@@H]1COC[C@@H]1Nc1nc2ccc(Cl)cc2s1` (relative stereo), the negative logarithm of the IC50 (pIC50) was 5.85 in test [1] and 6.66 in test [2].
